This is an account of results in US4159328A, “Tetrahydro-1,3,5-thiadiazin-4-one derivative” (Nihon Nohyaku Co., Ltd., priority 1977, dated 1979).

Like-named read-outs stand apart in the source and are kept apart here.

Assay type in all cases: in vivo
For series [1], the system named is larvae of brown planthopper (Nilaparvata lugens Stahl). Briefly: Test Example 1: insecticidal activity against larvae of brown planthopper. Particulars: third-instar larvae, 25° C. The procedure, abridged:
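Rice seedlings at 1.5-leaf stage were dipped for 30 s in a 400 ppm test composition, air-dried, and infested with third-instar N. lugens larvae. After holding at 25 °C, mortality was scored 5 or 7 days post-treatment from three replicates.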

The test system of series [2] is two-spotted spider mite (Tetranychus urticae Koch). Nature of the series: Test Example 3: activity to two-spotted spider mite. The source says: Activity to two-spotted spider mite (Tetranychus urticae Koch).
Testing method: Two-spotted spider mites were set free on the pot-planted soybean in a greenhouse. On the next day, a test composition of 1,000 ppm concentration was sprayed over the soybean by means of a spray gun. Two days or five days after the treatment, dead-and-survival was inspected to calculate the mortality.

Series [3] concerns larvae of white-backed planthopper (Sogatella furcifera Horvath). Nature of the series: Test Example 2: insecticidal activity against larvae of white-backed planthopper. The note with it: 168 h, 400 ppm, first-instar larvae, 25° C., seven days after treatment, read-out: Mortality. In short, it runs like this:
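Rice seedlings at 1.5-leaf stage were dipped 30 s in 400 ppm test composition, air-dried, and infested with five first-instar larvae. Tubes were held at 25°C, and mortality was scored at 7 days from triplicate tests.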

The subject of series [4] is larvae of green rice leafhopper (Nephotettix cincticeps Uhler). Briefly: Test Example 5: activity against larvae of green rice leafhopper. Particulars: 168 h, 400 ppm, second-instar larvae, 25° C., seven days after treatment, read-out: Mortality. The procedure, abridged:
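Rice seedlings at 1.5 leaf age dipped 30 seconds in 400 ppm test composition, air-dried, then infested with five second-instar larvae. Kept at 25° C; mortality scored seven days after treatment, three replicates.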

For series [5], the system named is cirrus red mite (Panonychus citri McGregor). Briefly: Test Example 4: activity to citrus red mite (Rothamstead method). Set-up: concentration or dose not given beside the values. The note with it: two days after treatment, 25° C.; 2880 min. As to the method: Activity to cirrus red mite (Panonychus citri McGregor).
Testing method: The test was performed by Rothamstead method. A test composition was sprayed by means of a spray gun over grapefruit leaves infested with citrus red mites. After air-drying the grapefruit was left standing in a constant temperature cabinet at 25° C. Two days after the treatment, the number of survived mites was counted to calculate the mortality.

The subject of series [6] is larvae of house mosquito (Culex pipiens pallens Coquillett). Briefly: Test Example 6: insecticidal activity to larvae of house mosquito. Particulars: 120 h. The procedure, abridged:
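Twenty first-instar Culex pipiens pallens larvae placed with feed in test composition diluted in deionized water to 10 ppm. Kept at 25 °C, and mortality counted five days after treatment.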

Series [7] deals with larvae of 28-spotted lady beetle (Epilachna vigintioctopunctana Fabricius). Briefly: Test Example 8: insecticidal activity against larvae of 28-spotted lady beetle. Particulars: 120 h. As to the method: Insecticidal activity against larvae of 28-spotted lady beetle (Epilachna vigintioctopunctana Fabricius).
Testing method: Leaflets of tomato grown in a greenhouse were dipped in a test composition of 100 ppm concentration for 30 seconds and after that the leaflets were dried by air. In a Petri dish covered on the bottom with a piece of filter paper, were introduced 1 ml of water and three treated tomato leaflets. After having been infested with seven second-instar larvae of 28-spotted lady beetle, the Petri dish was left standing in a constant temperature cabinet at 25° C. Five days after the treatment, the dead-and-survival was inspected to calculate the mortality (2-replication test).

The test system of series [8] is larvae of bug. (Togo hemipterus Scott). Nature of the series: Test Example 9: insecticidal activity against larvae of bug. The note with it: 120 h, 10 ppm, first-instar larvae, 25° C., five days, read-out: Mortality. The method, then:
Insecticidal activity against larvae of bug. (Togo hemipterus Scott).
Test method: Into a glass tube (1.6 cm in internal diameter and 9 cm in length), was added 1 ml of a test composition in 10 ppm concentration just to moisten the absorbent cotton. Five rice seeds and five first-instar larvae were introduced into the glass tube and the tube end was covered with a piece of Japanese paper. The glass tube was kept in a constant temperature cabinet at 25° C. Five days after treatment, the dead-and-survival was inspected to calculate the mortality (3-replication test).

Setting [9] is: 48 h, 1,000 ppm, 2 days after treatment.
Setting [10] is: 120 h, 1,000 ppm, 5 days after treatment.

With `CC(C)N=C1SCN(C(C)(C)C)C(=O)N1c1ccccc1` [Compound 75], the mortality – broadly, the percentage killed – at 400 ppm in series [1] (168 h, 7 days after treatment) is 100%; in series [3], 100%; in series [4], 50%. In addition, the mortality at 1000 ppm in series [2] (setting [9]) came out at 80%. For the same compound, the Mortality in series [5] came out at 50%.
For `CCN=C1SCN(C(C)(C)C)C(=O)N1c1ccccc1C` [Compound 80, 2-Ethylimino-3-o-tolyl-5-t-butyl-tetrahydro-1,3,5-thiadiazin-4-one], the mortality at 400 ppm amounted to 100% in series [1] (168 h, 7 days after treatment); 100% in series [3]; 50% in series [4]. Moreover, the mortality at 1000 ppm in series [2] (setting [9]) is 80%. The Mortality in series [5] is recorded as 100%.
As to `CN=C1SCN(C(C)(C)C)C(=O)N1c1ccc(Cl)cc1C` [Compound 82], the mortality at 400 ppm in series [1] (168 h, 7 days after treatment) worked out at 100%; in series [3], 100%; in series [4], 80%. This compound also gave a mortality at 1000 ppm in series [2] (setting [9]) of 100%. Besides, in series [5], the Mortality is 100%.
As for `COc1ccc(Cl)cc1N1C(=O)N(Cc2ccccc2)CSC1=NC(C)C` [Compound 87], the mortality at 400 ppm in series [1] (168 h, 7 days after treatment) turned out to be 100%; in series [3], 100%; in series [4], 80%. In addition, the mortality at 1000 ppm in series [2] (setting [9]) came to 100%. In addition, in series [5], the Mortality was 100%.
Take `CN=C1SCN(C(C)(C)CC(C)(C)C)C(=O)N1c1ccccc1` [Compound 88]: the mortality at 400 ppm in series [1] (168 h, 7 days after treatment) worked out at 100%; in series [3], 100%; in series [4], 80%. The compound further yielded a mortality at 1000 ppm in series [2] (setting [9]) of 100%. This compound came in with a Mortality in series [5] of 100%.
The compound `CCCN=C1SCN(c2ccccc2)C(=O)N1CC` [Compound 126] displayed a mortality at 400 ppm in series [1] (120 h, 5 days after treatment) of 100%. Moreover, the mortality at 10 ppm in series [6] and in series [8] was 100% throughout. Also, in series [7] (100 ppm, second-instar larvae, 25° C., five days, read-out: Mortality), the mortality at 100 ppm turned out to be 80%.
On to `CCN1C(=O)N(c2ccccc2)CSC1=NC(C)C` [Compound 127], for which the mortality at 400 ppm in series [1] (120 h, 5 days after treatment) came to 100%. Besides, the mortality at 10 ppm in series [6] and in series [8] was 100% in each case. The same compound showed a mortality at 100 ppm in series [7] of 80%.
In turn, `CCN1C(=O)N(c2ccccc2)CSC1=NCC(C)C` [Compound 129] showed a mortality at 400 ppm in series [1] (120 h, 5 days after treatment) of 80%. Besides, the mortality at 10 ppm in series [6] and in series [8] was 100% throughout.
Regarding `CCCN=C1SCN(c2ccccc2)C(=O)N1CCC` [Compound 134], the mortality at 400 ppm in series [1] (120 h, 5 days after treatment) was 100%. Moreover, the mortality at 10 ppm in series [6] and in series [8] was 80% throughout. Besides, the mortality at 100 ppm in series [7] came out at 80%.
Regarding `CCCN1C(=O)N(c2ccccc2)CSC1=NC(C)CC` (stereo not drawn) [Compound 136], the mortality at 400 ppm in series [1] (120 h, 5 days after treatment) came out at 80%. Also, the mortality at 10 ppm in series [6] and in series [8] was 100% each time. Besides, in series [7], the mortality at 100 ppm is 50%.
Turning to `CC(C)CN=C1SCN(c2ccccc2)C(=O)N1CC(C)C` [Compound 148], the mortality at 400 ppm in series [1] (120 h, 5 days after treatment) was found to be 100%. Further, in series [7], the mortality at 100 ppm stood at 100%. The Mortality in series [5] was found to be 100%.
For the compound `CCC(C)N1C(=O)N(c2ccccc2Cl)CSC1=NC(C)(C)C` (stereo not drawn) [Compound 249], the mortality at 400 ppm in series [1] (120 h, 5 days after treatment) is 100%; in series [4], 100%. This compound also yielded a mortality at 1000 ppm in series [2] (setting [10]) of 70%. The compound also yielded a mortality at 10 ppm in series [6] of 100%. Besides, in series [7], the mortality at 100 ppm was found to be 100%. This compound also came in with a Mortality in series [5] of 100%.
As for `Cc1ccc(N2CSC(=NC(C)C)N(C(C)C)C2=O)cc1` [Compound 316], the mortality at 400 ppm in series [1] (120 h, 5 days after treatment) was 100%; in series [3] it was 100%. Besides, the mortality at 1000 ppm in series [2] (setting [10]) worked out at 100%. Also, the mortality at 10 ppm in series [6] is 70%. The mortality at 100 ppm in series [7] was 100%. This compound also returned a Mortality in series [5] of 100%.
Turning to `CCC(C)N1C(=O)N(c2ccc(C)cc2)CSC1=NC(C)(C)C` (stereo not drawn) [Compound 319], the mortality at 400 ppm stood at 100% in series [1] (120 h, 5 days after treatment); 100% in series [3]; 100% in series [4]. The mortality at 1000 ppm in series [2] (setting [10]) is 100%. Also, the mortality at 10 ppm in series [6] was 100%. In addition, the mortality at 100 ppm in series [7] was 100%. This compound came in with a Mortality in series [5] of 100%.
